Publication PMC9238401, “Peptide Conjugates Derived from flg15, Pep13, and PIP1 That Are Active against Plant-Pathogenic Bacteria and Trigger Plant Defense Responses” (Applied and Environmental Microbiology, 2022)
No end group written: not given here.

Assays:
[1] = system: Erwinia amylovora PMV6076; test: In vitro growth inhibition (MIC); format: cell-based; details: TSB, 25°C, 48 h, OD 600 nm (Bioscreen C), three replicates, experiment repeated twice; MIC = lowest concentration with no growth, given as range
Outline: (§1)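 Strains were grown 24 h at 25°C on agar, then suspended in sterile water at 10^8 CFU mL^−1 and mixed with peptide dilutions in Trypticase soy broth. Plates were incubated at 25°C with shaking and OD600 read hourly for 48 h. MIC is the lowest concentration with no growth at 48 h.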

[2] = system: Pseudomonas syringae pv. actinidiae Psa3700.1.1; test: In vitro growth inhibition (MIC); format: cell-based; details: TSB, 25°C, 48 h, OD 600 nm (Bioscreen C), three replicates, experiment repeated twice; MIC given as range
Outline: as §1

[3] = system: Pseudomonas syringae pv. syringae EPS94; test: In vitro growth inhibition (MIC); format: cell-based; details: TSB, 25°C, 48 h, OD 600 nm (Bioscreen C), three replicates, experiment repeated twice; MIC given as range
Outline: as §1

[4] = system: Xanthomonas arboricola pv. pruni CFBP5563; test: In vitro growth inhibition (MIC); format: cell-based; details: TSB, 25°C, 48 h, OD 600 nm (Bioscreen C), three replicates, experiment repeated twice; MIC given as range
Outline: as §1

[5] = system: Xanthomonas fragariae Xf349-9A; test: In vitro growth inhibition (MIC); format: cell-based; details: TSB, 25°C, 48 h, OD 600 nm (Bioscreen C), three replicates, experiment repeated twice; MIC given as range
Outline: as §1

[6] = system: Xanthomonas axonopodis pv. vesicatoria 2133-2; details: TSB, 25°C, 48 h, OD 600 nm (Bioscreen C), three replicates, experiment repeated twice; MIC given as range
Outline: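 Bacteria grown 24 h (48 h for Xanthomonas axonopodis, X. fragariae) at 25°C, suspended at 10^8 CFU mL^−1, mixed with peptide dilutions in TSB.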

[7] = system: plant-pathogenic bacteria (E. amylovora, X. arboricola pv. pruni, X. fragariae, X. axonopodis pv. vesicatoria, P. syringae pv. actinidiae, P. syringae pv. …); details: 24 h
horse erythrocytes = details: TRIS buffer pH 7.2, 1 h, 37°C, absorbance 540 nm, relative to melittin 100 μM, ± confidence interval (α = 0.05)
Outline: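 Hemolysis measured as absorbance at 540 nm of supernatant, expressed as percent of melittin-lysed control after buffer subtraction. Compound solutions (750, 500, 300, 100 μM, Tris-buffered saline pH 7.2) were combined 1:1 with washed horse red cells for 1 h, 37°C, shaking.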

tobacco leaves = test: Effect of peptide infiltration on tobacco leaves (phytotoxicity); format: in vivo; details: in vivo
Outline: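 Phytotoxicity was scored as necrotic lesion diameter 48 h post-infiltration. Each peptide was infiltrated at 50, 150 or 250 μM into fully expanded tobacco leaf mesophyll, on ≥3 leaves from different plants, alongside water and same-molar melittin controls.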

[8] = HPLC retention time as indicator of relative hydrophobicity; format: physicochemical; details: chromatographic, Kromasil 100 C18 (4.6 mm × 40 mm, 3 μm), linear gradient 2 to 100% B over 12 min, 1 mL/min; A 0.1% aqueous TFA, B 0.1% TFA in CH3CN; used as indicator of relative hydrophobicity
Outline: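 Reversed-phase HPLC on Kromasil 100 C18 (4.6 × 40 mm, 3 μm), 0.1% TFA in water/acetonitrile, linear 2–100% B at 1 mL/min over 7 min (method A, UV 220 nm) or 12 min (method B). Retention time serves as relative hydrophobicity.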

| Substance | MIC, Ea [1] | MIC, Psa [2] | MIC, Pss [3] | MIC, Xap [4] | MIC, Xf [5] | MIC, Xav [6] | MIC against four pathogens [7] | Percent hemolysis at 50 μM (horse erythrocytes) | Percent hemolysis at 150 μM (horse erythrocytes) | Percent hemolysis at 250 μM (horse erythrocytes) | Percent hemolysis at 375 μM (horse erythrocytes) | Size of the lesions in infiltrated tobacco leaves at 50 μM (tobacco leaves) | Size of the lesions in infiltrated tobacco leaves at 150 μM (tobacco leaves) | Size of the lesions in infiltrated tobacco leaves at 250 μM (tobacco leaves) | tR (min), HPLC retention time (method B) [8] | MIC against all the bacteria tested (span over the six pathogens) [7] |
| --- | --- | --- | --- | --- | --- | --- | --- | --- | --- | --- | --- | --- | --- | --- | --- | --- |
| KKLFKKILKYLVWNQPVRGFKVYE [BP100-Pep13] | 0.8 to 1.6 µM | 0.8 to 1.6 µM | 1.6 to 3.1 µM | 1.6 to 3.1 µM | 3.1 to 6.2 µM | 1.6 to 3.1 µM | 0.8 to 3.1 µM | 5 ± 0.3% | 12 ± 1.1% | 20 ± 2.4% | 30 ± 3.2% | 0.04 ± 0.08 cm | 0.32 ± 0.11 cm | 0.42 ± 0.10 cm | 5.53 min | – |
| VWNQPVRGFKVYEKKLFKKILKKL-NH2 [Pep13-BP16] | 6.2 to 12.5 µM | 1.6 to 3.1 µM | 6.2 to 12.5 µM | 0.8 to 1.6 µM | 3.1 to 6.2 µM | 0.8 to 1.6 µM | – | 2 ± 0.6% | 3 ± 0.2% | 4 ± 0.3% | 4 ± 0.2% | 0.23 ± 0.07 cm | 0.52 ± 0.14 cm | 0.93 ± 0.19 cm | 5.70 min | 0.8 to 12.5 µM |
| VWNQPVRGFKVYEKKLFKKILKYL-NH2 [Pep13-BP100] | 6.2 to 12.5 µM | 3.1 to 6.2 µM | 6.2 to 12.5 µM | 0.8 to 1.6 µM | 6.2 to 12.5 µM | 0.8 to 1.6 µM | – | 9 ± 1.0% | 25 ± 2.4% | 45 ± 9.0% | 49 ± 9.2% | 0.26 ± 0.08 cm | 0.56 ± 0.13 cm | 0.70 ± 0.15 cm | 6.14 min | 0.8 to 12.5 µM |
